Measured values reported in patent publication US20080300298A1, “Honokiol Derivates For the Treatment of Proliferative Disorders” (priority 2005, published 2008).

Columns and labels:
H1299 cells = assay: Invasion assay (Matrigel); type: cell-based, human
Description: (A) RAW 264.7 cells (1×10^4) were plated overnight, pretreated with 5 mM honokiol for 12 h, and then treated with 5 nM RANKL. At 4 and 5 days later, cells were stained for TRAP and evaluated for osteoclastogenesis. Photographs were taken after 5 days of incubation with RANKL. (B) The numbers of TRAP-positive multinucleated osteoclasts (>3 nuclei) per well were counted. (C) H1299 cells (2.5×10^4) were seeded into the upper wells of a Matrigel invasion chamber overnight in the absence of serum, pretreated with […] honokiol for 12 h, treated with 1 nM TNF for 24 h in the presence of 1% serum, and then subjected to invasion assay. The value for no honokiol and no TNF was set to 1.0.
Invasion assay. The membrane invasion culture system was used to assess cell invasion because invasion through the extracellular matrix is a crucial step in tumor metastasis. […] The cells that invaded through the Matrigel (i.e., those that migrated to the lower chamber during incubation) were stained with […] calcein-AM (Molecular Probes) in PBS for 30 min at 37° C. and scanned for fluorescence with a Victor 3 multi-plate reader (Perkin Elmer Life and Analytical Sciences, Boston, Mass.); fluorescent cells were counted. […]

IKK = biological target: T1, IKK (Homo sapiens, UniProt O14920+O15111); assay: IKK assay (immune complex kinase assay); type: cell-based
T1 construct: 200 mg of extract was immunoprecipitated with antibodies against IKKa and IKKb; endogenous in cells; host or cells: H1299 cells, whole-cell extracts, immunoprecipitated
Description: Honokiol inhibits TNF-induced activation of NF-kB. H1299 cells were incubated with […] honokiol for 12 h, treated with 0.1 nM TNF for the indicated times, and then analyzed for NF-kB activation by EMSA. (B) H1299 cells (2×10^6/ml) were incubated with […] honokiol for 12 h at 37° C., treated with 0.1 nM TNF for the indicated times at 37° C., and then tested for IkBa (upper panel) in cytosolic fractions by Western blot analysis. Equal protein loading was evaluated by b-actin (lower panel). (C) Honokiol blocks the phosphorylation and ubiquitination (D) of IkBaby TNF. […] To examine the effect of honokiol on the level of expression of IKK proteins, 30 mg of whole-cell extract was analyzed on 10% SDS-PAGE, electrotransferred, and immunoblotted with the indicated antibodies as described in Materials and Methods. […] Nuclear extracts were prepared and analyzed by Western blotting using antibodies against p65. […] The cytoplasmic and nuclear extracts were analyzed by Western blotting using antibodies against the phosphorylated form of p65.
IKK assay. To determine the effect of honokiol on TNF-induced IKK activation, we analyzed IKK by a method essentially as described previously (Shishodia, S., et al. 2003 Cancer Res. 63:4375-4383). […]

T1 sequence (O15111 whole entry): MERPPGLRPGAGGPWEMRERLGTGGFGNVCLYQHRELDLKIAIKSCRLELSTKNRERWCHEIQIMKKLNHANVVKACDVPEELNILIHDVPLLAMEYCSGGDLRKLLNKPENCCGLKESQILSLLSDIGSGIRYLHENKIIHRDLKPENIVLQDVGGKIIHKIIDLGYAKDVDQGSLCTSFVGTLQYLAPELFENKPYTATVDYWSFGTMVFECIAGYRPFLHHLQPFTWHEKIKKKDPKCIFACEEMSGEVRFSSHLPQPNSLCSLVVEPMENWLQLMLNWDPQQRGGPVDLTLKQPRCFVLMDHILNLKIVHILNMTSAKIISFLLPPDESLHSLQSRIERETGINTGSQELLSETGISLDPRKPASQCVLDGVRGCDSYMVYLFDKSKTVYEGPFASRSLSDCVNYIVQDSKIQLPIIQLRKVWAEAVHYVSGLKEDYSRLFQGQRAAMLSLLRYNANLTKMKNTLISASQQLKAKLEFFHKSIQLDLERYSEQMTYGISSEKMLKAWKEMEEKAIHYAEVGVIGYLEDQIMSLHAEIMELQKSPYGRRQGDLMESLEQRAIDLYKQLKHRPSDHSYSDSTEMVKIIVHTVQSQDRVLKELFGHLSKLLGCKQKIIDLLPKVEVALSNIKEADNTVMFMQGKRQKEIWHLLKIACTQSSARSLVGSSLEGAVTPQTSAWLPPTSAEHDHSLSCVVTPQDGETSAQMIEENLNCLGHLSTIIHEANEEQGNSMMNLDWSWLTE
T1 sequence (O14920 whole entry): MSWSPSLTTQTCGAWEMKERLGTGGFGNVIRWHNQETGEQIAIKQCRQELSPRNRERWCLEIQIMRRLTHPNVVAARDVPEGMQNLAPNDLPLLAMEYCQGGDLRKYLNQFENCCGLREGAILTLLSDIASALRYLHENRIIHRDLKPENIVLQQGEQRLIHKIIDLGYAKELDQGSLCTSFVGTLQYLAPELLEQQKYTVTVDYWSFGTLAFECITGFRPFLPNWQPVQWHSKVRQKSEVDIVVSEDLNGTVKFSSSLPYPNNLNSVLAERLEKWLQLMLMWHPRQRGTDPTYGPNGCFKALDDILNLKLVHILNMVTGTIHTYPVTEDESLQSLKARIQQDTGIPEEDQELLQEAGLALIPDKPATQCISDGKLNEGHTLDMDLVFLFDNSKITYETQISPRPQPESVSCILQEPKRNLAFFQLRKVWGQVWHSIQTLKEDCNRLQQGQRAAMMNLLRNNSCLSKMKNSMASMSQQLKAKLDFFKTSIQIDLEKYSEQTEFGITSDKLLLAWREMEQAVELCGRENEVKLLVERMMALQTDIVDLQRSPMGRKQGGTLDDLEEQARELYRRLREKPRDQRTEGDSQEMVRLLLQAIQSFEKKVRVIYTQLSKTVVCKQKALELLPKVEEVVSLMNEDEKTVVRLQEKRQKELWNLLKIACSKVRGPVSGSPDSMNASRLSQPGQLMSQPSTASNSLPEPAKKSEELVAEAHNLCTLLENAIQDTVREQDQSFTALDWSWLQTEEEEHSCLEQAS
T1 sequence (Q9Y6K9 whole entry partner): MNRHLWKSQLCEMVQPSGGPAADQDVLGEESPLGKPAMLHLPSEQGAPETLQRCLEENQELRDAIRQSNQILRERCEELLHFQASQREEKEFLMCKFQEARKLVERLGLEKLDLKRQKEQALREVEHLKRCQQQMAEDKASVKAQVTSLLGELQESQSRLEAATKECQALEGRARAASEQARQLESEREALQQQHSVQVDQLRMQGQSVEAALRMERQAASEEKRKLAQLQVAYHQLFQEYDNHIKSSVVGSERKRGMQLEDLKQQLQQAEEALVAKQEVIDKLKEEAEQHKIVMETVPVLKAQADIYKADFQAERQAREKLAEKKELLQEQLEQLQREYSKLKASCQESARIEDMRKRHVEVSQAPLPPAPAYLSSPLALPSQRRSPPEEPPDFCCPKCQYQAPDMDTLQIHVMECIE

With C=CCc1ccc(O)c(-c2ccc(O)c(CC=C)c2)c1 [HNK, Honokiol] the “TNF-induced tumor cell invasion” value (H1299 cells; H1299, 10 mM (printed) honokiol 12 h, 1 nM TNF 24 h) was “suppressed this activity”, the “invasion activity of honokiol alone” value (H1299 cells; H1299, no TNF) was “had no invasion activity” and the “TNF-induced IKK activation” value (IKK; cells treated with honokiol 12 h, 0.1 nM TNF) was “completely suppressed TNF-induced activation of IKK”. The “IKK activity in vitro (direct effect)” value (IKK; in vitro) was “did not directly interfere with the IKK activity”.
